Laboratory results: patent publication US9856279B2 (AGIOS PHARMACEUTICALS, INC, priority 2011, dated 2018)

What was measured:
IDH1 R132H = IDH1 R132H (Homo sapiens, UniProt O75874, R132H); assay: Assay for IDH1 R132H inhibitors (NADPH/aKG, resazurin detection); format: biochemical; conditions: enzyme assay of Example 12; read-out: IDH1R132H IC50
Method in brief: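 Read-out is resorufin fluorescence (Ex544/Em590) 5 min after adding a 30 μM resazurin detection mix. Before that, mutant enzyme (0.2 μg/ml in its mix) ran 50 min at room temperature with compound, 8 uM NADPH and 2 mM aKG (mix levels) in Tris pH 7.5 with NaCl, MgCl2, BSA.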

HT1080 cells = assay: Cellular assay for IDH1m inhibitors: inhibition of 2-HG production (LC-MS, 48 hours) in HT1080 cells; format: cell-based; conditions: Homo sapiens, HT-1080; inhibition of 2-HG production, HT1080 cells; read-out: HT1080 IC50
Method in brief: (§1)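 5000 cells/well, DMEM + 10% FBS, overnight 37 °C/5% CO2; compound added (0.2% DMSO final), 48 h; medium sampled for LC-MS 2-HG; IC50 vs DMSO control.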

U87MG cells = assay: Cellular assay for IDH1m inhibitors: inhibition of 2-HG production (LC-MS, 48 hours) in U87MG cells; format: cell-based; conditions: Homo sapiens, U-87 MG, inhibition of 2-HG production, U87R132H cells; read-out: U87R132H IC50
Method in brief: as §1

Chain of IDH1 R132H (O75874 whole entry R132H): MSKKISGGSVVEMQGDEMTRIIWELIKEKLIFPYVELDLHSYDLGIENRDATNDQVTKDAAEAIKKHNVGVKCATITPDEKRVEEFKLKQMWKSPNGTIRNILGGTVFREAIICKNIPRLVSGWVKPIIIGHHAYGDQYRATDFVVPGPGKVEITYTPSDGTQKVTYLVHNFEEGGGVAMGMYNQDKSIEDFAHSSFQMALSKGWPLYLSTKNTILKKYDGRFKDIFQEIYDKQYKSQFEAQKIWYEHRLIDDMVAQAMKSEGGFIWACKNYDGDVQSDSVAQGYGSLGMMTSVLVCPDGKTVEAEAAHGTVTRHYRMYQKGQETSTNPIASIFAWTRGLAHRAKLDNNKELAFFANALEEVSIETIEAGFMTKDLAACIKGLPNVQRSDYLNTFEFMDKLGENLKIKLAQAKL

Compound | IC50 (IDH1 R132H) | IC50 (HT1080 cells) | IC50 (U87MG cells)
COCCC(=O)N1CCN(c2nc(C3CC3)c(OCc3ccccn3)cc2C#N)C[C@H]1C [Compound 279, (R)-6-cyclopropyl-2-(4-(3-methoxypropanoyl)-3-methylpiperazin-1-yl)-5-(pyridin-2-ylmethoxy)nicotinonitrile] | 500 to 1000 nM | 1000 to 10000 nM | 1000 to 10000 nM
N#Cc1cc(Nc2ccnc(Cl)c2)c(C2CC2)nc1N1CCN(C(=O)C[C@H]2CCO2)[C@H](C2CC2)C1 [Compound 748, 5-(2-chloropyridin-4-ylamino)-6-cyclopropyl-2-((R)-3-cyclopropyl-4-(2-((R)-oxetan-2-yl)acetyl)piperazin-1-yl)nicotinonitrile] | < 500 nM | < 500 nM | < 500 nM
COCCC(=O)N1CCN(c2nc(C3CC3)c(-c3cccc4cnc(C)cc34)cc2C#N)C[C@H]1C [Compound 433, (R)-6-cyclopropyl-2-(4-(3-methoxypropanoyl)-3-methylpiperazin-1-yl)-5-(3-methylisoquinolin-5-yl)nicotinonitrile] | < 500 nM | < 500 nM | < 500 nM
COCCC(=O)N1CCN(c2nc(C3CC3)c(-c3ccsc3)c(C)c2C#N)C[C@H]1C [Compound 270, (R)-6-cyclopropyl-2-(4-(3-methoxypropanoyl)-3-methylpiperazin-1-yl)-4-methyl-5-(thiophen-3-yl)nicotinonitrile] | 500 to 1000 nM | 1000 to 10000 nM | 1000 to 10000 nM
COCCC(=O)N1CCN(c2nc(C3CC3)c(-c3ccccc3OC)cc2C#N)C[C@H]1C(C)C [Compound 275, (R)-6-cyclopropyl-2-(3-isopropyl-4-(3-methoxypropanoyl)piperazin-1-yl)-5-(2-methoxyphenyl)nicotinonitrile] | < 500 nM | 1000 to 10000 nM | 1000 to 10000 nM
COCCC(=O)N1CCN(c2nc(C3CC3)c(-c3ccc4c(c3)NC(=O)C4)cc2C#N)C[C@H]1C [Compound 313, (R)-6-cyclopropyl-2-(4-(3-methoxypropanoyl)-3-methylpiperazin-1-yl)-5-(2-oxoindolin-6-yl)nicotinonitrile] | < 500 nM | 1000 to 10000 nM | 500 to 1000 nM
C=Cc1cc(-c2cc(C#N)c(N3CCN(C(=O)CCCOP(=O)(OC(C)(C)C)OC(C)(C)C)[C@H](C4CC4)C3)nc2C2CC2)ccn1 [Compound 804, (R)-di-tert-butyl 4-(4-(5-cyano-2-cyclopropyl-2′-vinyl-3,4′-bipyridin-6-yl)-2-cyclopropylpiperazin-1-yl)-4-oxobutyl phosphate] | < 500 nM | < 500 nM | 500 to 1000 nM
C=Cc1ncc2c(-c3cc(C#N)c(N4CCN(C(=O)CCOC)[C@H](C)C4)nc3C3CC3)cccc2n1 [Compound 603, (R)-6-cyclopropyl-2-(4-(3-methoxypropanoyl)-3-methylpiperazin-1-yl)-5-(2-vinylquinazolin-5-yl)nicotinonitrile] | < 500 nM | < 500 nM | < 500 nM
C=Cc1cc(-c2c(C3CC3)nc(N3CCN(C(=O)CCCOC)[C@H](C(C)C)C3)c(C#N)c2C)ccn1 [Compound 788, (R)-2-cyclopropyl-6-(3-isopropyl-4-(4-methoxybutanoyl)piperazin-1-yl)-4-methyl-2′-vinyl-3,4′-bipyridine-5-carbonitrile] | < 500 nM | < 500 nM | < 500 nM
C=Cc1cc(-c2c(C3CC3)nc(N3CCN(C(=O)CCOC)[C@H](C)C3)c(C#N)c2C)ccn1 [Compound 628, (R)-2-cyclopropyl-6-(4-(3-methoxypropanoyl)-3-methylpiperazin-1-yl)-4-methyl-2′-vinyl-[3,4′-bipyridine]-5-carbonitrile] | < 500 nM | < 500 nM | < 500 nM
C=Cc1cc(-c2c(C3CC3)nc(N3CCN(C(=O)CC4CC4)[C@H](C4CC4)C3)c(C#N)c2C)ccn1 [Compound 787, (R)-2-cyclopropyl-6-(3-cyclopropyl-4-(2-cyclopropylacetyl)piperazin-1-yl)-4-methyl-2′-vinyl-3,4′-bipyridine-5-carbonitrile] | < 500 nM | < 500 nM | < 500 nM

Continued, values first:

IC50 (IDH1 R132H) | IC50 (HT1080 cells) | IC50 (U87MG cells) | Compound
< 500 nM | < 500 nM | 500 to 1000 nM | COCCC(=O)N1CCN(c2nc(C3CC3)c(-c3ccnc4ccccc34)cc2C#N)C[C@H]1C [Compound 315, (R)-6-cyclopropyl-2-(4-(3-methoxypropanoyl)-3-methylpiperazin-1-yl)-5-(quinolin-4-yl)nicotinonitrile]
< 500 nM | < 500 nM | < 500 nM | C=Cc1cc(-c2cc(C#N)c(N3CCN(C(=O)COCC)[C@H](C)C3)nc2C2CC2)ccn1 [Compound 573, (R)-2-cyclopropyl-6-(4-(2-ethoxyacetyl)-3-methylpiperazin-1-yl)-2′-vinyl-3,4′-bipyridine-5-carbonitrile]
< 500 nM | 500 to 1000 nM | < 500 nM | N#Cc1cc(Oc2ccnc(Cl)c2)c(C2CC2)nc1N1CCN(C(=O)CCO)[C@H](C2CC2)C1 [Compound 694, (R)-5-(2-chloropyridin-4-yloxy)-6-cyclopropyl-2-(3-cyclopropyl-4-(3-hydroxypropanoyl)piperazin-1-yl) nicotinonitrile]
< 500 nM | 500 to 1000 nM | 1000 to 10000 nM | COCCC(=O)N1CCN(c2nc(C3CC3)c(OCc3cccc(C(=O)OC)c3)cc2C#N)C[C@H]1C [Compound 292, (R)-methyl 3-((5-cyano-2-cyclopropyl-6-(4-(3-methoxypropanoyl)-3-methylpiperazin-1-yl)pyridin-3-yloxy)methyl)benzoate]
< 500 nM | < 500 nM | < 500 nM | COC[C@@H]1C[C@@H]1C(=O)N1CCN(c2nc(C3CC3)c(-c3cccc4cnccc34)cc2C#N)C[C@H]1C1CC1 [Compound 480, 6-cyclopropyl-2-((R)-3-cyclopropyl-4-((1S,2R)-2-(methoxymethyl)cyclopropanecarbonyl)piperazin-1-yl)-5-(isoquinolin-5-yl)nicotinonitrile]
< 500 nM | < 500 nM | < 500 nM | C=Cc1cc(Oc2cc(C#N)c(N3CCN(C(=O)CCOC)[C@H](C)C3)nc2C2CC2)ccn1 [Compound 667]
< 500 nM | 1000 to 10000 nM | 500 to 1000 nM | COCCC(=O)N1CCN(c2nc(C3CC3)c(-c3ccc4scnc4c3)cc2C#N)C[C@H]1C [Compound 352, (R)-5-benzothiazol-5-yl-6-cyclopropyl-2-[4-(3-methoxy-propionyl)-3-methyl-piperazin-1-yl]-nicotinonitrile]
< 500 nM | < 500 nM | < 500 nM | C=Cc1ccnc(Nc2cc(C#N)c(N3CCN(C(=O)CCOC)[C@H](C)C3)nc2C2CC2)c1 [Compound 647, (R)-6-cyclopropyl-2-(4-(3-methoxypropanoyl)-3-methylpiperazin-1-yl)-5-((4-vinylpyridin-2-yl)amino)nicotinonitrile]
< 500 nM | 1000 to 10000 nM | 500 to 1000 nM | COCCC(=O)N1CCN(c2nc(C3CC3)c(-c3ccc4[nH]cnc4c3)cc2C#N)C[C@H]1C [Compound 361, (R)-5-(1H-benzoimidazol-5-yl)-6-cyclopropyl-2-[4-(3-methoxy-propionyl)-3-methyl-piperazin-1-yl]-nicotinonitrile]
< 500 nM | < 500 nM | < 500 nM | C=Cc1cc(Nc2cc(C#N)c(N3CCN(C(=O)CCO)[C@H](C4CC4)C3)nc2C2CC2)ccn1 [Compound 676, (R)-6-cyclopropyl-2-(3-cyclopropyl-4-(3-hydroxypropanoyl)piperazin-1-yl)-5-((2-vinylpyridin-4-yl)amino)nicotinonitrile]
< 500 nM | < 500 nM | < 500 nM | C=Cc1cnnc(-c2c(C3CC3)nc(N3CCN(C(=O)C[C@H]4CCO4)[C@H](C4CC4)C3)c(C#N)c2C)c1 [Compound 768, 6-cyclopropyl-2-((R)-3-cyclopropyl-4-(2-((R)-oxetan-2-yl)acetyl)piperazin-1-yl)-4-methyl-5-(5-vinylpyridazin-3-yl)nicotinonitrile]
< 500 nM | 1000 to 10000 nM | 500 to 1000 nM | COCCC(=O)N1CCN(c2nc(C3CC3)c(-c3ccc(S(N)(=O)=O)cc3)c(C)c2C#N)C[C@H]1C [Compound 393, (R)-4-{5-cyano-2-cyclopropyl-6-[4-(3-methoxy-propionyl)-3-methyl-piperazin-1-yl]-4-methyl-pyridin-3-yl}-benzenesulfonamide]
< 500 nM | < 500 nM | < 500 nM | C=Cc1cc(-c2cc(C#N)c(N3CCN(C(=O)CCOC)[C@H](C(C)C)C3)nc2C2CC2)ccn1 [Compound 631, (R)-2-cyclopropyl-6-(3-isopropyl-4-(3-methoxypropanoyl)piperazin-1-yl)-2′-vinyl-3,4′-bipyridine-5-carbonitrile]
< 500 nM | < 500 nM | < 500 nM | C=Cc1cc(Oc2c(C3CC3)nc(N3CCN(C(=O)CCO)[C@H](C4CC4)C3)c(C#N)c2C)ccn1 [Compound 777, (R)-6-cyclopropyl-2-(3-cyclopropyl-4-(3-hydroxypropanoyl)piperazin-1-yl)-4-methyl-5-((2-vinylpyridin-4-yl)oxy)nicotinonitrile]
< 500 nM | 500 to 1000 nM | 1000 to 10000 nM | COCCC(=O)N1CCN(c2nc(C3CC3)c(-c3cccc(C#N)c3)cc2C#N)C[C@H]1C [Compound 283, (R)-5-(3-cyanophenyl)-6-cyclopropyl-2-(4-(3-methoxypropanoyl)-3-methylpiperazin-1-yl)nicotinonitrile]
